From patent US20150065470A1, “Steroid Sulfatase Inhibitor Regimen for the Treatment of Endometriosis” (priority 2012, published 2015)
Read-outs that look alike come from different tables or passages of the source.

How the values were obtained:
[1] = molecular target: T1, Steroid Sulfatase in PBMCs (Homo sapiens, UniProt P08842); assay: STS activity in PBMCs, Example 1 (radio scintillation assay); format: in vivo; conditions: for Emax: read-out: Emax (%) maximal inhibition of Steroid Sulfatase in PBMCs, Mean (SD); for STS inhibition in PBMCs: single dose 4 mg E2MATE
T1 construct: Pharmacodynamic properties were investigated by assessment of the STS activity in PBMCs; endogenous in cells; host or cells: peripheral blood mononuclear cells (PBMCs) of dosed women
T1 sequence (P08842 22-583): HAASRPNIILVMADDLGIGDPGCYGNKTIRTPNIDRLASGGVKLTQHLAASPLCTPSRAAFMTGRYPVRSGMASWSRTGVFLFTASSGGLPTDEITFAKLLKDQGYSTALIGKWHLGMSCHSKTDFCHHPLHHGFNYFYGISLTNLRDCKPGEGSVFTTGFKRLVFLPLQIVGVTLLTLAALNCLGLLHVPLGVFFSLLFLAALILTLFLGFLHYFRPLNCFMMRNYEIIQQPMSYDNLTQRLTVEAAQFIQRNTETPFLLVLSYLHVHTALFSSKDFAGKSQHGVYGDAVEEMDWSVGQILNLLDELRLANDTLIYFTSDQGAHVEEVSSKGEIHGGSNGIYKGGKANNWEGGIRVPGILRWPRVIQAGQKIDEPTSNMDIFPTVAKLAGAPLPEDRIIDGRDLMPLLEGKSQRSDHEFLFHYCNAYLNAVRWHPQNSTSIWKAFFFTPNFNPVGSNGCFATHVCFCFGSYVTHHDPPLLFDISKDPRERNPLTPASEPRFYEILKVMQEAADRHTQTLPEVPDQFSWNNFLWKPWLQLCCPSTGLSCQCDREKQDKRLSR
Protocol: (§1) Treatment was started within 72 hours after the beginning of menstrual bleeding.
The active doses tested were 0.25 mg (1st cohort), 1 mg, 4 mg and 8 mg.
The active doses tested were 0.25 mg, 1 mg and 4 mg.
(§2) Ovarian and endometrium transvaginal ultrasounds throughout the study (Part A and B) and an endometrial biopsy (Part B only) were performed.
(§3) Pharmacodynamic properties were investigated by assessment of the STS activity in PBMCs and by measurement of the serum hormonal profile comprising the ratio of E1-S to E1 and DHEA-S to DHEA. […] Hormone profiles were analysed using commercially available ELISA or RIA kits.

E2 (serum estradiol) = assay: Serum hormonal profile incl. estradiol concentrations, Example 1; format: in vivo, human
Protocol: as §3

STS [2] = assay: E1-S to E1 and DHEA-S to DHEA ratios, Example 1; format: in vivo, human; conditions: multiple doses 0.25, 1, 4 mg weekly x4
Protocol: as §3

[3] = Safety, tolerability and ovarian cycle parameters, Example 1
Protocol: as §1, §2

STS activity in PBMCs = molecular target: T2, STS activity in PBMCs (Homo sapiens, UniProt P08842); assay: STS activity in PBMCs, Example 2 (LC-MS/MS); format: in vivo; conditions: E2MATE 4 mg weekly and/or NETA 10 mg daily for 4 weeks
T2 construct: Pharmacodynamic properties were investigated by assessment of the STS activity in PBMCs; endogenous in cells; host or cells: peripheral blood mononuclear cells (PBMCs) of dosed women
T2 sequence (P08842 22-583): T1 sequence (P08842 22-583)
Protocol: STS activity was determined by spiking specimens with labelled E1-S and by measuring its conversion to E1 per gram protein under standardized incubation conditions using LC-MS/MS. Protein concentration was evaluated with a validated colorimetric assay (Bradford method).

STS [4] = assay: Functional biomarkers of STS activity (E1-S to E1 and DHEA-S to DHEA ratios), Example 2; format: in vivo, human
Protocol: (§4) Hormone profiles were determined as described in Example 1.
As described before, STS converts sulphate precursors of estrogens.

E2 and P4; T and D4A = assay: Hormone profiles (E2, P4, T, D4A), Example 2; format: in vivo, human
Protocol: as §4

[5] = Pharmacokinetic model: accumulation of E2MATE+EMATE, Example 3; parameters: species or system human
Protocol: As shown on FIG. 2, the accumulation ratio (Racc) based on the accumulation between two doses during one week time could be calculated. […] This could be achieved for example by the administration of 1 mg every 3 days or 2 mg per week (FIG. 2B).

[6] = system: endometriosis-like lesion; conditions: daily oral dose of 0.5 or 1 mg/kg for 21 days, cited from earlier work
STS [7] = molecular target: T3, STS (Homo sapiens, UniProt P08842); conditions: cited from earlier work
T3 sequence (P08842 22-583): T1 sequence (P08842 22-583)

[8] = multiple dose 0.25 mg E2MATE weekly for four weeks
[9] = multiple dose 1 mg E2MATE weekly for four weeks
[10] = multiple dose 4 mg E2MATE weekly for four weeks
[11] = multiple dose 0.25 mg weekly x4, Cycle 1
[12] = multiple dose 0.25 mg weekly x4, Cycle 2
[13] = multiple dose 0.25 mg weekly x4, Cycle 3
[14] = multiple dose 1 mg weekly x4, Cycle 1
[15] = multiple dose 1 mg weekly x4, Cycle 2
[16] = multiple dose 1 mg weekly x4, Cycle 3
[17] = multiple dose 4 mg weekly x4, Cycle 1
[18] = multiple dose 4 mg weekly x4, Cycle 2
[19] = multiple dose 4 mg weekly x4, Cycle 3
[20] = NETA treatment period, days 8 to 29

## C[C@]12CC[C@@H]3c4ccc(OS(N)(=O)=O)cc4CC[C@H]3[C@@H]1CC[C@@H]2O [E2MATE, Estradiol-3-o-sulfamate]
[1]; [8]
  AVG (%) average inhibition of Steroid Sulfatase in PBMCs, Mean (SD): 22.7 (16.5) %
  Emax: 42%
[1]; [9]
  AVG (%) average inhibition of Steroid Sulfatase in PBMCs, Mean (SD): 43.5 (23.2) %
  Emax: 79.5%
[1]; [10]
  AVG (%) average inhibition of Steroid Sulfatase in PBMCs, Mean (SD): 88.4 (9.5) %
  Emax: 100%
[1]; po, single oral dose 0.25 mg E2MATE
  Emax: 59.5%
[1]; po, single oral dose 1 mg E2MATE
  Emax: 58.7%
[1]; po, single oral dose 4 mg E2MATE
  Emax: 99.5%
[1]; Day 0 of cycle 2 (approximately 56 days after dosing)
  STS inhibition in PBMCs: 82%
[1]; Day 3
  STS inhibition in PBMCs: 96%
[1]; single oral dose 0.25 mg E2MATE, Day 1 until EOS
  AVG (%) average inhibition of Steroid Sulfatase in PBMCs, Mean (SD): 23.2 (14.6) %
[1]; single oral dose 1 mg E2MATE, Day 1 until EOS
  AVG (%) average inhibition of Steroid Sulfatase in PBMCs, Mean (SD): 25.2 (10.6) %
E2 (serum estradiol); [11]
  Avg estradiol concentration, Mean: 135.7 ng/L
  Max estradiol concentration, Mean: 305.3 ng/L
E2 (serum estradiol); [12]
  Avg estradiol concentration, Mean: 116.0 ng/L
  Max estradiol concentration, Mean: 260.5 ng/L
E2 (serum estradiol); [13]
  Avg estradiol concentration, Mean: 107.1 ng/L
  Max estradiol concentration, Mean: 185.4 ng/L
E2 (serum estradiol); [14]
  Avg estradiol concentration, Mean: 126.0 ng/L
  Max estradiol concentration, Mean: 278.6 ng/L
E2 (serum estradiol); [15]
  Avg estradiol concentration, Mean: 109.0 ng/L
  Max estradiol concentration, Mean: 193.4 ng/L
E2 (serum estradiol); [16]
  Avg estradiol concentration, Mean: 110.0 ng/L
  Max estradiol concentration, Mean: 221.6 ng/L
E2 (serum estradiol); [17]
  Avg estradiol concentration, Mean: 134.8 ng/L
  Max estradiol concentration, Mean: 317.8 ng/L
E2 (serum estradiol); [18]
  Avg estradiol concentration, Mean: 100.9 ng/L
  Max estradiol concentration, Mean: 207.7 ng/L
E2 (serum estradiol); [19]
  Avg estradiol concentration, Mean: 94.9 ng/L
  Max estradiol concentration, Mean: 180.9 ng/L
E2 (serum estradiol); multiple dose administration
  differences in mean concentration-time profiles of E2, P4, LH, FSH, T and D4A compared to placebo: No clinically relevant dose-related differences
E2 (serum estradiol); single dose 0.25 mg E2MATE
  Avg (weighted average) estradiol concentration, Mean: 141.2 ng/L
  Max estradiol concentration, Mean: 335.1 ng/L
E2 (serum estradiol); single dose 1 mg E2MATE
  Avg (weighted average) estradiol concentration, Mean: 131.0 ng/L
  Max estradiol concentration, Mean: 318.1 ng/L
E2 (serum estradiol); single dose 4 mg E2MATE
  Avg (weighted average) estradiol concentration, Mean: 113.8 ng/L
  Max estradiol concentration, Mean: 275.3 ng/L
E2 (serum estradiol); single dose 8 mg E2MATE
  Avg (weighted average) estradiol concentration, Mean: 109.3 ng/L
  Max estradiol concentration, Mean: 221.1 ng/L
E2 (serum estradiol); single dose administration
  effects on mean concentration-time profiles of E2, P4, LH, FSH, T and D4A compared to placebo: No clinically relevant effects
STS [2]
  turn-over of E1-S to E1: dose-dependent decreased turn-over
[3]; in vivo
  cycle length: not affected
  endometrial thickness assessed by TVUS, between treatment groups: no clinically relevant differences
  number of measurable follicles / subjects with follicles >10 mm: No clinically relevant effects
[3]; multiple doses of 0.25, 1 mg and 4 mg weekly x4
  tolerability: well tolerated
[3]; single doses of 0.25 mg, 1 mg, 4 mg and 8 mg
  tolerability: well tolerated
STS activity in PBMCs; Day 4
  mean percentage inhibition of STS activity in PBMCs: 90%
STS activity in PBMCs; Day 113
  percentage inhibition of STS activity in PBMCs: 37%
STS activity in PBMCs
  average inhibition of STS activity in PBMCs: 82.6%
  mean maximal inhibition of STS activity in PBMCs: 94.7%
STS [4]; Day 1
  Baseline relative change of the DHEA-S/DHEA [%]: 0%
  Baseline relative change of the E1-S/E1 [%]: 0%
STS [4]; Day 8
  Baseline relative change of the DHEA-S/DHEA [%]: 133%
  Baseline relative change of the E1-S/E1 [%]: 208%
STS [4]; Day 15
  Baseline relative change of the DHEA-S/DHEA [%]: 116%
  Baseline relative change of the E1-S/E1 [%]: 282%
STS [4]; Day 22
  Baseline relative change of the DHEA-S/DHEA [%]: 113%
  Baseline relative change of the E1-S/E1 [%]: 218%
STS [4]; Day 29
  Baseline relative change of the DHEA-S/DHEA [%]: 148%
  Baseline relative change of the E1-S/E1 [%]: 194%
STS [4]; Day 57
  Baseline relative change of the DHEA-S/DHEA [%]: 195%
  Baseline relative change of the E1-S/E1 [%]: 218%
STS [4]; Day 85
  Baseline relative change of the DHEA-S/DHEA [%]: 232%
  Baseline relative change of the E1-S/E1 [%]: 243%
STS [4]; Day 113
  Baseline relative change of the DHEA-S/DHEA [%]: 175%
  Baseline relative change of the E1-S/E1 [%]: 400%
STS [4]; [20]
  baseline relative mean increases of the DHEA-S to DHEA ratio (up to): up to 265%
  baseline relative mean increases of the E1-S to E1 ratio (up to): up to 282%
E2 and P4; T and D4A; first cycle up to Day 29, normal increase on Day 43
  mean concentration-time profiles in E2 and P4: Normal mean concentration-time profiles
E2 and P4; T and D4A; multiple dose administration
  mean concentration-time profiles for T and D4A: No relevant differences
[5]; Cmin 504 h versus Cmin 168 h, 4 mg/week during 4 weeks
  accumulation ratio (Racc) of E2MATE+EMATE: about 2.7
[5]; after loading 4 mg/week during 4 weeks
  E2MATE dose necessary to maintain the blood levels reached after the loading period: 0.36 mg/day
[6]; end of treatment
  lesion weight and size: decreased
[6]
  histology of the uterus (indicative of some estrogenic activity): some stromal oedema was observed
  number of lesions: without a reduction
STS [7]
  STS inhibition: active STS inhibitors
